Measurements taken from patent US6476009B1, “Method for control and treatment of acquired immunodeficiency syndrome (AIDS)” (priority 1985, dated 2002).
Values joined by “and” are separate entries in the source; they are usually repeats but may differ in a detail not shown here. Equal values may be shown once.

Key:
[1] = biological target: HTLV-III reverse transcriptase (Human immunodeficiency virus type 1 group M subtype B, UniProt P03366); experiment: Purified HTLV-III reverse transcriptase assay; assay type: biochemical
Protocol: Source of HTLV-III Reverse Transcriptase and Assay Conditions. HTLV-III reverse transcriptase used in these studies was purified by sequential chromatography on DEAE, cellulose, phosphocellulose and hydroxyapatite. The purified anzyme was stored in 50 mM Tris-HC1 (pH 7.5), 1 mM dithiothreitol (DTT), 0.01% Triton X-100 and 20% glycerol. Reverse transcriptase assays were carried out in a reaction mixture (50 μl)containing 50 mM Tris-HC1 (pH 7.5), 5 mM DTT, 100mM potassium chloride, 0.01% Triton X-100 or NP40, 10 μg/ml (dT)15.(A)n as template primer and/^3H/deoxythymidine triphosphate (/^3H/-dTTP). The reaction mixture was incubated for 1 hour at 37°, and the reaction was stopped by the addition of 50 μg of yeast tRNA and 2 ml of 10% solution of trichloroacetic acid (TCA) containing 1 mM sodium pyrophosphate. The samples were filtered on millipore filters (0.45 μm), washed first with 5% TCA solution (5 times) and then with 2 ml of 70% ethanol. The filters were dried under a heat lamp, scintillation fluid was added and the radioactivity counted in a β-scintillation counter.
The effect of foscarnet on purified HTLV-III reverse transcriptase (RT) was assayed as a function of drug concentration.

[2] = test system: cytomegalovirus (CMV); experiment: Clinical effect of infusion in patients with severe herpesvirus infections; assay type: in vivo; conditions: intravenous constant infusion 1-4 weeks, severe herpesvirus infections mainly CMV
[3] = test system: HTLV-III; experiment: Replication of HTLV-III in H9 cells (RT activity readout); assay type: cell-based; conditions: Human immunodeficiency virus 1, 144 h
Protocol: HTLV-III Infection of H9 Cells. H9 cells constitute a human cell line that can be chronically infected with HTLV-III virus. (Science 1984; 224: 497-500). H9 cells were treated with polybrene (2 μg/ml) for 30 min. at 37° C., washed free of polybrene and infected with 2×10^8 HTLV-III virus particles per 4×10^5 H9 cells. […] The cultures were analyzed for HTLV-III reverse transcriptase activity as described above.
The effect of foscarnet on the replication of HTLV-III in H9 cells was determined as a function of both foscarnet concentration and time of incubation.

[4] = Steady-state serum level in patients on constant intravenous infusion; conditions: constant intravenous infusion for 1-4 weeks, most cases
Protocol: These patients were given foscarnet intravenously by constant infusion for 1-4 weeks and, at steady state, serum levels of foscarnet reached in most cases were 300-450 μM (100-150 μg/ml).

[5] = test system: variety of cell types; experiment: Cell growth inhibition in a variety of cell types; assay type: cell-based
[6] = test system: labial and genital herpes; experiment: Clinical evaluation of topical formulation against labial and genital herpes; assay type: in vivo
[7] = test system: Uninfected H9 cells; experiment: Growth inhibition of uninfected H9 cells; assay type: cell-based; conditions: Homo sapiens, 750 μM foscarnet

O=C(O)P(=O)(O)O [foscarnet, trisodium phosphonoformate hexahydrate]
IC50 [1]: 0.1 to 2 µM
mode of inhibition of reverse transcriptase ([1]; with respect to substrate and template): noncompetitive with respect to substrate and uncompetitive with respect to template
clinical effect in treated patients [2]: clear indications of a beneficial effect
inhibition at 50 µM ([3]; 50 μM foscarnet, 6 days of incubation): 50%
inhibition at 300 µM ([3]; 300 μM foscarnet, six days of incubation): > 95%
steady state serum level [4]: 300-450 μM and 100-150 μg/ml
cell growth after removal of the drug ([5]; stationary cells treated with 10 mM foscarnet): normal cell growth can be seen
reversibility of cell growth inhibition ([5]; variety of cell types): reversible
IC50 ([5]; variety of cell types, read-out: concentration inhibiting cell growth by 50%): ~1000 µM
clinical activity and tolerability [6]: active and well tolerated
inhibition at 750 µM [7]: < 50%
